Assay results as given in patent publication US20260116868A1 (Arcus Biosciences, Inc., priority 2023, published 2026).

molecular target: T1, Cbl-b (Homo sapiens, UniProt Q13191); assay: Cbl-b probe displacement HTRF binding assay; conditions: 0.4 nM Cbl-b, 150 nM BODIPY probe
T1 construct: biotin (biotinylated protein)
Procedure, shortened: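 Binding IC50 from four-parameter fit of HTRF signal loss, normalised to DMSO (0%) and no-protein (100%) wells. Biotinylated Cbl-b 0.4 nM was preincubated 60 min with compound (20-point 1:2 dilution) before 15 min with 150 nM BODIPY probe; Tb-streptavidin detection.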

T1 sequence (Q13191 whole entry, species assumed): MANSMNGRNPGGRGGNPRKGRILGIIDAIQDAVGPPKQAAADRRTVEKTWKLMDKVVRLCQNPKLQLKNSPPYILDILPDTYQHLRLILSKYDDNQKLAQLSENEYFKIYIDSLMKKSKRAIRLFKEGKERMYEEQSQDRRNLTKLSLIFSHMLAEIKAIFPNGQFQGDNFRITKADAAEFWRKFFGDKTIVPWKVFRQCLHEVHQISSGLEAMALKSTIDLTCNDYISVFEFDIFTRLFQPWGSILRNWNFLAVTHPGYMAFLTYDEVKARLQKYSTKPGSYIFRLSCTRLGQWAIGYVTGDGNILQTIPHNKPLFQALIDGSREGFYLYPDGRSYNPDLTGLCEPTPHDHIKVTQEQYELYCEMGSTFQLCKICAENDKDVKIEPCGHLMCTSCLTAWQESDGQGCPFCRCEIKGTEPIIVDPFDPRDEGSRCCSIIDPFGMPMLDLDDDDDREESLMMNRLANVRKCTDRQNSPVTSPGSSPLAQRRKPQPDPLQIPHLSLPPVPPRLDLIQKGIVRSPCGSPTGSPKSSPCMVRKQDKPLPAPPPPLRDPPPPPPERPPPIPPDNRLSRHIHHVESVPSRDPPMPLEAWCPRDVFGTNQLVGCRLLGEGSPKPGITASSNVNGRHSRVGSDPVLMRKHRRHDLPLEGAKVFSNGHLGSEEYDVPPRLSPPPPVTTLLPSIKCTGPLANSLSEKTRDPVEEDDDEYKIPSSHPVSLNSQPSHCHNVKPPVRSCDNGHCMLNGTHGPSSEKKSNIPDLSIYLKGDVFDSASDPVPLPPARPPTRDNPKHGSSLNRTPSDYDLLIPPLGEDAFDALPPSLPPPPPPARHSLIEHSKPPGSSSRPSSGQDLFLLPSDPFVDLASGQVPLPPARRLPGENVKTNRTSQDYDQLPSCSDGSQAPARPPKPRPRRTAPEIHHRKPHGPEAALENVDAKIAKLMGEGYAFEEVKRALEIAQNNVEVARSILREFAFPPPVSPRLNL

Row | IC50 | Structure (SMILES)
1 | < 100 nM | COc1ccc(-c2cc(NC(=O)c3cc(CNCC(C)C)cn(C)c3=O)nc(OC(C)C)c2)c(C(=O)N2CC(F)C2)c1 [Example 317]
2 | < 100 nM | COc1ccc(-c2cc(NC(=O)c3cc(CN[C@@H](CO)C4CCC4)cn(C4CC4)c3=O)nc(OC(C)C)c2)c(C(=O)N2CC(F)C2)c1 [Example 318]
3 | < 100 nM | COc1ccc(-c2cc(NC(=O)c3cc(CNC[C@@H]4CCCO4)cn(C)c3=O)nc(C3CC3)c2)c(C(=O)N2CC(F)C2)c1 [Example 319]
4 | < 100 nM | Cc1ccc(-c2cc(NC(=O)c3cc(CNC[C@@H]4CCCO4)cn(C)c3=O)nc(OC(C)C)c2)c(C(=O)N2CC(F)C2)c1 [Example 320]
5 | < 100 nM | CO[C@@H](C)CNCc1cc(C(=O)Nc2cc(-c3ccc(OC(F)F)cc3C(=O)N3CC(F)(F)C3)cc(C3CC3)n2)c(=O)n(C2CC2)c1 [Example 321]
6 | < 100 nM | CC(C)CNCc1cc(C(=O)Nc2cc(-c3ccc(OC(F)F)cc3C(=O)N3CC(F)(F)C3)cc(C3CC3)n2)c(=O)n(C2CC2)c1 [Example 322]
7 | < 100 nM | C[C@H](N[C@H](C)c1cc(C(=O)Nc2cc(-c3ccc(C#N)cc3C(=O)N3CC(F)(F)C3)cc(C3CC3)n2)c(=O)n(C2CC2)c1)C1CC1 [Example 323]
8 | < 100 nM | CO[C@@H](C)CNC(C)c1cc(C(=O)Nc2cc(-c3ccc(C#N)cc3C(=O)N3CC(F)(F)C3)cc(C3CC3)n2)c(=O)n(C2CC2)c1 (some centres unmarked) [Example 324]
9 | < 100 nM | O=C(Nc1cc(-c2ccc(OC(F)F)cc2C(=O)N2CC(F)(F)C2)cc(C2CC2)n1)c1cc(CNC[C@@H]2CCCO2)cn(C2CC2)c1=O [Example 325]
10 | < 100 nM | CC(C)CNC(C)c1cc(C(=O)Nc2cc(-c3ccc(C#N)cc3C(=O)N3CC(F)(F)C3)cc(C3CC3)n2)c(=O)n(C2CC2)c1 (centres unmarked) [Example 326]
11 | < 100 nM | C[C@H](NCc1cc(C(=O)Nc2cc(-c3ccc(OC(F)F)cc3C(=O)N3CC(F)(F)C3)cc(C3CC3)n2)c(=O)n(C2CC2)c1)C1CCC1 [Example 327]
12 | < 100 nM | C[C@H](N[C@@H](C)C1CC1)c1cc(C(=O)Nc2cc(-c3ccc(C#N)cc3C(=O)N3CC(F)(F)C3)cc(C3CC3)n2)c(=O)n(C2CC2)c1 [Example 328]
13 | < 100 nM | CC(N[C@@H](C)C1CCC1)c1cc(C(=O)Nc2cc(-c3ccc(C#N)cc3C(=O)N3CC(F)(F)C3)cc(C3CC3)n2)c(=O)n(C2CC2)c1 (some centres unmarked) [Example 329]
14 | < 100 nM | CCNc1cc(-c2ccc(OC(F)F)cc2C(=O)N2CC(F)(F)C2)cc(NC(=O)c2cc(CNC[C@H](C)OC)cn(C3CC3)c2=O)n1 [Example 330]
15 | < 100 nM | CCOc1cc(-c2ccc(OC(F)F)cc2C(=O)N2CC(F)(F)C2)cc(NC(=O)c2cc(CNC[C@H](C)OC)cn(C3CC3)c2=O)n1 [Example 331]
16 | < 100 nM | CO[C@@H](C)CNCc1cc(C(=O)Nc2cc(-c3ccc(OC(F)F)cc3C(=O)N3CC(F)(F)C3)cc(NC(C)C)n2)c(=O)n(C2CC2)c1 [Example 332]
17 | < 100 nM | CC(NCC1CC1)c1cc(C(=O)Nc2cc(-c3ccc(C#N)cc3C(=O)N3CC(F)(F)C3)cc(C3CC3)n2)c(=O)n(C2CC2)c1 (centres unmarked) [Example 333]
18 | < 100 nM | COc1cc(-c2ccc(OC(F)F)cc2C(=O)N2CC(F)(F)C2)cc(NC(=O)c2cc(CNC[C@H](C)OC)cn(C3CC3)c2=O)n1 [Example 334]
19 | < 100 nM | COC[C@H](C)NC(C)c1cc(C(=O)Nc2cc(-c3ccc(C#N)cc3C(=O)N3CC(F)(F)C3)cc(C3CC3)n2)c(=O)n(C2CC2)c1 (some centres unmarked) [Example 335]

Row | IC50 | Structure (SMILES)
20 | < 100 nM | CC(C)[C@H](C)N[C@@H](C)c1cc(C(=O)Nc2cc(-c3ccc(C#N)cc3C(=O)N3CC(F)(F)C3)cc(C3CC3)n2)c(=O)n(C2CC2)c1 [Example 336]
21 | < 100 nM | COCCNCc1cc(C(=O)Nc2cc(-c3ccc(OC(F)F)cc3C(=O)N3CC(F)(F)C3)cc(C3CC3)n2)c(=O)n(C2CC2)c1 [Example 337]
22 | < 100 nM | CO[C@@H](C)CNCc1cc(C(=O)Nc2cc(-c3ccc(OC(F)F)cc3C(=O)N3CC(F)(F)C3)cc(C)n2)c(=O)n(C2CC2)c1 [Example 338]
23 | < 100 nM | CO[C@@H](C)CNCc1cc(C(=O)Nc2cc(-c3ccc(C#N)cc3C(=O)N3CC(F)(F)C3)cc(OC(C)C)n2)c(=O)n(C2CC2)c1 [Example 339]
24 | < 100 nM | CCOc1cc(-c2c(F)cc(C#N)cc2C(=O)N2CC(F)(F)C2)cc(NC(=O)c2cc(CNC[C@H](C)OC)cn(C3CC3)c2=O)n1 [Example 340]
25 | < 100 nM | N#Cc1ccc(-c2cc(NC(=O)c3cc(CNC[C@@H]4CCCO4)cn(C4CC4)c3=O)nc(OC(F)F)c2)c(C(=O)N2CC(F)(F)C2)c1 [Example 341]
26 | < 100 nM | COCCNCc1cc(C(=O)Nc2cc(-c3ccc(C#N)cc3C(=O)N3CC(F)(F)C3)cc(NC(C)C)n2)c(=O)n(C2CC2)c1 [Example 342]
27 | < 100 nM | COc1ccc(-c2cc(NC(=O)c3cc(CN[C@@H](C)C4CCC4)cn(C4CC4)c3=O)nc(OCC(F)F)c2)c(C(=O)N2CC(F)(F)C2)c1 [Example 343]
28 | < 100 nM | N#Cc1ccc(-c2cc(NC(=O)c3cc(CNC[C@@H]4CCCO4)cn(C4CC4)c3=O)nc(OCF)c2)c(C(=O)N2CC(F)(F)C2)c1 [Example 344]
29 | < 100 nM | CCOc1cc(-c2ccc(C#N)cc2C(=O)N2CC(F)(F)C2)cc(NC(=O)c2cc(CNCCOC)cn(C3CC3)c2=O)n1 [Example 345]
30 | < 100 nM | CCNc1cc(-c2ccc(C#N)cc2C(=O)N2CC(F)(F)C2)cc(NC(=O)c2cc(CNCCOC)cn(C3CC3)c2=O)n1 [Example 346]
31 | < 100 nM | Cc1ccc(-c2cc(NC(=O)c3cc(CN[C@@H](C)C4CCC4)cn(C4CC4)c3=O)nc(OCC(F)F)c2)c(C(=O)N2CC(F)(F)C2)c1 [Example 347]
32 | < 100 nM | COc1ccc(-c2cc(NC(=O)c3cc(CNC[C@H](C)OC)cn(C4CC4)c3=O)nc(OCC(F)F)c2)c(C(=O)N2CC(F)(F)C2)c1 [Example 348]
33 | < 100 nM | CO[C@@H](C)CNCc1cc(C(=O)Nc2cc(-c3ccc(C)cc3C(=O)N3CC(F)(F)C3)cc(OCC(F)F)n2)c(=O)n(C2CC2)c1 [Example 349]
34 | < 100 nM | Cn1cc(CNC[C@@H]2CCCO2)cc(C(=O)Nc2cc(-c3ccc(C#N)cc3C(=O)N3CC(F)(F)C3)cc(OCF)n2)c1=O [Example 350]
35 | < 100 nM | C[C@H](NCc1cc(C(=O)Nc2cc(-c3ccc(C#N)cc3C(=O)N3CC(F)(F)C3)cc(C3CC3)n2)c(=O)n(C2CC2)c1)C1CCC1 [Example 351]
36 | < 100 nM | N#Cc1ccc(-c2cc(NC(=O)c3cc(CNC[C@@H]4CCCO4)cn(C4CC4)c3=O)nc(C3CC3)c2)c(C(=O)N2CC(F)(F)C2)c1 [Example 352]
37 | < 100 nM | CO[C@@H](C)CNCc1cc(C(=O)Nc2cc(-c3ccc(Cl)cc3C(=O)N3CC(F)(F)C3)cc(C3CC3)n2)c(=O)n(C2CC2)c1 [Example 353]
38 | < 100 nM | C[C@H](NCc1cc(C(=O)Nc2cc(-c3ccc(C#N)cc3C(=O)N3CC(F)(F)C3)cc(C3CC3)n2)c(=O)n(C)c1)[C@@H]1CCCO1 [Example 354]

Row | IC50 | Structure (SMILES)
39 | < 100 nM | N#Cc1ccc(-c2cc(NC(=O)c3cc(CNCC4CCC4)cn(C4CC4)c3=O)nc(C3CC3)c2)c(C(=O)N2CC(F)(F)C2)c1 [Example 355]
40 | < 100 nM | CC(C)CNCc1cc(C(=O)Nc2cc(-c3ccc(C#N)cc3C(=O)N3CC(F)(F)C3)cc(C3CC3)n2)c(=O)n(C2CC2)c1 [Example 356]
41 | < 100 nM | CO[C@@H](C)CNCc1cc(C(=O)Nc2cc(-c3ccc(F)cc3C(=O)N3CC(F)(F)C3)cc(NC(C)C)n2)c(=O)n(C2CC2)c1 [Example 357]
42 | < 100 nM | C[C@H](NCc1cc(C(=O)Nc2cc(-c3ccc(C#N)cc3C(=O)N3CC(F)(F)C3)cc(C3CC3)n2)c(=O)n(C2CC2)c1)C1CCCC1 [Example 358]
43 | < 100 nM | CO[C@@H](C)[C@H](C)NCc1cc(C(=O)Nc2cc(-c3ccc(Cl)cc3C(=O)N3CC(F)(F)C3)cc(C3CC3)n2)c(=O)n(C2CC2)c1 [Example 359]
44 | < 100 nM | CO[C@@H](C)CNCc1cc(C(=O)Nc2cc(-c3ccc(F)cc3C(=O)N3CC(F)(F)C3)cc(C3CC3)n2)c(=O)n(C2CC2)c1 [Example 360]
45 | < 100 nM | COC[C@H](C)NCc1cc(C(=O)Nc2cc(-c3ccc(C#N)cc3C(=O)N3CC(F)(F)C3)cc(C3CC3)n2)c(=O)n(C2CC2)c1 [Example 361]
46 | < 100 nM | CC(C)[C@H](C)NCc1cc(C(=O)Nc2cc(-c3ccc(C#N)cc3C(=O)N3CC(F)(F)C3)cc(C3CC3)n2)c(=O)n(C2CC2)c1 [Example 362]
47 | < 100 nM | CO[C@H]1CCC[C@@H]1NCc1cc(C(=O)Nc2cc(-c3ccc(C#N)cc3C(=O)N3CC(F)(F)C3)cc(C3CC3)n2)c(=O)n(C2CC2)c1 [Example 363]
48 | < 100 nM | CO[C@@H](C)CNCc1cc(C(=O)Nc2cc(-c3ccc(C#N)cc3C(=O)N3CCC3)cc(C3CC3)n2)c(=O)n(C2CC2)c1 [Example 364]
49 | < 100 nM | C[C@H](NCc1cc(C(=O)Nc2cc(-c3ccc(C#N)cc3C(=O)N3CC(F)(F)C3)cc(C3CC3)n2)c(=O)n(C2CC2)c1)C1CC1 [Example 365]
50 | < 100 nM | N#Cc1ccc(-c2cc(NC(=O)c3cc(CNC[C@@H]4CCCCO4)cn(C4CC4)c3=O)nc(C3CC3)c2)c(C(=O)N2CC(F)(F)C2)c1 [Example 366]
51 | < 100 nM | CO[C@@H](C)CNCc1cc(C(=O)Nc2cc(-c3c(F)cc(F)cc3C(=O)N3CC(F)(F)C3)cc(C3CC3)n2)c(=O)n(C2CC2)c1 [Example 367]
52 | < 100 nM | CO[C@@H](C)CNCc1cc(C(=O)Nc2cc(-c3c(F)cc(F)cc3C(=O)N3CC(F)(F)C3)cc(OC(C)C)n2)c(=O)n(C2CC2)c1 [Example 368]
53 | < 100 nM | N#Cc1ccc(-c2cc(NC(=O)c3cc(CNC[C@@H]4COCCO4)cn(C4CC4)c3=O)nc(C3CC3)c2)c(C(=O)N2CC(F)(F)C2)c1 [Example 369]
54 | < 100 nM | O=C(Nc1cc(-c2ccc(Cl)cc2C(=O)N2CC(F)(F)C2)cc(C2CC2)n1)c1cc(CNCC2CCC2)cn(C2CC2)c1=O [Example 370]
55 | < 100 nM | CC(C)Oc1cc(-c2ccc(C#N)cc2C(=O)N2CC(F)(F)C2)cc(NC(=O)c2cc(CNC[C@@H]3COCCO3)cn(C3CC3)c2=O)n1 [Example 371]
56 | < 100 nM | COC[C@H](C)NCc1cc(C(=O)Nc2cc(-c3ccc(Cl)cc3C(=O)N3CC(F)(F)C3)cc(C3CC3)n2)c(=O)n(C2CC2)c1 [Example 372]
